Patent EP2179993A1, “Sulfoxide substituted aniline pyrimidine derivatives as CDK inhibitors, their manufacture and use as medicine” (Bayer Schering Pharma Aktiengesellschaft, priority 2008, dated 2010)
pIC50: −log10 of the molar value.

Assays:
CDK1/CycB = target: T1, CDK1/CycB (Homo sapiens, UniProt P06493); assay: CDK1/CycB kinase assay (33P-ATP incorporation into histone IIIS, filter strip scintillation); type: biochemical; conditions: recombinant CDK1- and CycB-GST fusion proteins; 0,5 µM ATP; 10 min at 22°C; substrate Histon IIIS; read-out: CDK1/CycB (Assay 1) Konzentration der halbmaximalen Inhibition der Enzymaktivität, IC50
T1 construct: GST; purchased ProQinase GmbH, Freiburg; host or cells: baculovirus-infected Sf9 insect cells
Experimental: Assay 1: CDK1/CycB Kinase Assay
Rekombinante CDK1- und CycB-GST-Fusionsproteine, gereinigt aus Bakulovirusinfizierten Insektenzellen (Sf9), wurden von ProQinase GmbH, Freiburg, gekauft. Das als Kinase-Substrat verwendet Histon IIIS ist über die Fa. Sigma käuflich zu erwerben.
(§1) CDK1/CycB (200 ng/Messpunkt) wurde für 10 min bei 22°C in Anwesenheit verschiedener Konzentrationen an Testsubstanzen (0 µM, sowie innerhalb des Bereiches 0,001 - 10 µM) in Assaypuffer [50 mM Tris/HCl pH8,0; 10 mM MgCl2; 0,1 mM Na ortho-Vanadat; 1,0 mM Dithiothreitol; 0,5 µM Adenosintrisphosphat (ATP); 10 µg/Messpunkt Histon IIIS; 0,2 µCi/Messpunkt ^33P-gamma ATP; 0,05% NP40; 1,25% Dimethylsulfoxid] inkubiert. Die Reaktion wurde durch Zugabe von EDTA-Lösung (250 mM; pH8,0; 15 µl/Messpunkt) gestoppt.
(§2) Von jedem Reaktionsansatz wurden 15 µl auf P30 Filterstreifen (Fa. Wallac) aufgetragen, und nicht-eingebautes ^33P-ATP wurde durch dreimaliges Waschen der Filterstreifen für je 10 min in 0,5%iger Phosphorsäure entfernt. Nach dem Trocknen der Filterstreifen für 1 Stunde bei 70°C wurden die Filterstreifen mit Szintillator-Streifen (MeltiLex™ A, Fa. Wallac) bedeckt und für 1 Stunde bei 90°C eingebrannt. Die Menge an eingebautem ^33P (Substratphosphorylierung) wurde durch Szintillationsmessung in einem Gamma-Strahlungsmessgerät (Wallac) bestimmt. […]

CDK2/CycE = target: T2, CDK2/CycE (Homo sapiens, UniProt P24941); assay: CDK2/CycE kinase assay (33P-ATP incorporation into histone IIIS, filter strip scintillation); type: biochemical; conditions: recombinant CDK2- and CycE-GST fusion proteins; 0,5 µM ATP; 10 min at 22°C; substrate Histon IIIS; read-out: CDK2/CycE (Assay 2) Konzentration der halbmaximalen Inhibition der Enzymaktivität, IC50
T2 construct: GST; purchased ProQinase GmbH, Freiburg; host or cells: baculovirus-infected Sf9 insect cells
Experimental: Assay 2: CDK2/CycE Kinase Assay
Rekombinante CDK2- und CycE-GST-Fusionsproteine, gereinigt aus Bakulovirusinfizierten Insektenzellen (Sf9), wurden von ProQinase GmbH, Freiburg, gekauft. Histon IIIS, das als Kinase-Substrat verwendet wurde, wurde bei der Fa. Sigma gekauft.
as §1, with “CDK2/CycE (50” for “CDK1/CycB (200”
as §2, with “(MeItiLex™” for “(MeltiLex™”

T1 sequence (P06493 whole entry, the tested form may be a part): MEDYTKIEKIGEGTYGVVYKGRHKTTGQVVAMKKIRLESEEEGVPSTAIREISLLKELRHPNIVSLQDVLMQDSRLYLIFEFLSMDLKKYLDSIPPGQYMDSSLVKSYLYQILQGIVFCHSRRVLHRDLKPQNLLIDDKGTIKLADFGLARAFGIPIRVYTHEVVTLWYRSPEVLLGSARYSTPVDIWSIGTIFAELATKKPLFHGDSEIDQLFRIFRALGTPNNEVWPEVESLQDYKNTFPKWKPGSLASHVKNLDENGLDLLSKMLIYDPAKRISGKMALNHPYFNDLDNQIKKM
T1 sequence (P14635 whole entry partner, the tested form may be a part): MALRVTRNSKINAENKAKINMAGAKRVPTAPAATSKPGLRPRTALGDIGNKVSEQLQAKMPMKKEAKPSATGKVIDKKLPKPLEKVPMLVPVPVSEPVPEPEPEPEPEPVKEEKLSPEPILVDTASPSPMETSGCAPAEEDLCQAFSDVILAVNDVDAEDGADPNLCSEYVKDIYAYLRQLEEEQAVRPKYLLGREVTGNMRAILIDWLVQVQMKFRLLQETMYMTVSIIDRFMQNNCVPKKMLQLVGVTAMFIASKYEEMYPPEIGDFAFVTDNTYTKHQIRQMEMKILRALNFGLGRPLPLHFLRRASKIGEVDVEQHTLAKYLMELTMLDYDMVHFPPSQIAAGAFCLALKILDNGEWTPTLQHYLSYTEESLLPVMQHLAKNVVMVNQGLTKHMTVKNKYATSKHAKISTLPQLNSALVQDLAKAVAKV

| SMILES | pIC50 (CDK1/CycB) | pIC50 (CDK2/CycE) |
| --- | --- | --- |
| C[C@@H](Oc1nc(Nc2ccc([S+](C)[O-])cc2)ncc1C(F)(F)F)C(C)(C)O (stereo partly drawn) [Beispiel 2, (R)-3-[2-(4-Methansulfinyl-phenylamino)-5-trifluormethyl-pyrimidin-4-yloxy]-2-methyl-butan-2-ol] | 7.52 | 7.92 |
| C[C@@H](O)[C@@H](C)Oc1nc(Nc2ccc([S+](C)[O-])cc2)ncc1C(F)(F)F (stereo partly drawn) [Beispiel 1, (2R,3R)-3-[2-(4-Methansulfinyl-phenylamino)-5-trifluormethyl-pyrimidin-4-yloxy]-butan-2-ol] | 8.15 | 8.30 |
